Source: paper PMC3944532, “Mode of Action of Diterpene and Characterization of Related Metabolites from the Soft Coral, Xenia elongata” (Marine Drugs, 2014)
Where two headings read alike, the source gives them in different places.

What was measured:
P-388 = P-388 cells; cited from earlier work
HT-29 = HT-29 cells; cited from earlier work
A549 = A549 cells; cited from earlier work
W2 cells = experiment: Apoptosis induction assay (MTT viability), apoptosis competent W2 cells; type: cell-based, mouse; conditions: for optimal concentration for apoptosis induction: MTT, 0 to 48 h, apoptosis induction = at least 20% death of W2 cells and 10% or higher growth of D3 cells; for cell death in W2 cells: apoptosis competent W2
Method: In order to assess the pro-apoptotic activities of these compounds as a marker for their potential anticancer efficacy, methanol soluble fractions of Xenia extracts were tested for apoptosis induction in an MTT assay using the apoptosis competent W2 and apoptosis resistant D3 cells, as described in our previous work. […] To quantify apoptosis induction, viability was determined using an MTT assay. Measurements were taken at time 0 and 48 h after addition of compounds in different concentrations. Viability was calculated as the difference between time 0 (addition of compound) and 48 h. Apoptosis induction was defined as at least 20% death of W2 cells and a 10% or higher growth of D3 cells by MTT assay. The optimal concentration of the compounds for apoptosis induction was determined based on the dose response of the two cells lines by MTT assay. […] Treatment of W2 and D3 cells with 0.1 µM staurosporine, a protein kinase inhibitor and potent inducer of apoptosis, was included as a positive control for apoptosis induction and for comparison. Thus, the diterpenes we have isolated and characterized effectively and specifically activate apoptosis in immortalized mammalian epithelial cells.
Apoptosis induction in the presence of compounds (2, 3) was carried out in the following manner. W2 (apoptosis competent) and D3 (apoptosis defective) cells were plated in 96- and 6-well plates and incubated for 24 h, after which they were evenly spread at about 50% confluency. At this time, compounds dissolved in DMSO and diluted in growth medium (DMEM) were added to the cells at various concentrations. DMSO concentration was kept at 0.5% in all wells. Plates were incubated for 24, 48 and 72 h. Cell viability was determined using a modification of the MTT assay, where the reduction of yellow tertazolium salt (MTT—[…]) to purple formazan indicates mitochondrial activity, and thus cell viability. Cells were incubated with 0.5 mg/mL MTT for 3 h. Supernatant was aspirated and DMSO was added to dissolve the formazan crystals. After 30 min incubation at 37 °C, with shaking, absorbance was read at 570 nm on a Spectra MAX 250 (Molecular Devices) plate reader. Differential growth from time 0 to 48 h was calculated. Starurosporine, an apoptosis inducer, and DMSO were used as positive and negative controls, respectively.

D3 cells = experiment: Apoptosis induction assay (MTT viability), apoptosis resistant D3 cells deficient in Bak and Bax; type: cell-based, mouse
Method: In order to assess the pro-apoptotic activities of these compounds as a marker for their potential anticancer efficacy, methanol soluble fractions of Xenia extracts were tested for apoptosis induction in an MTT assay using the apoptosis competent W2 and apoptosis resistant D3 cells, as described in our previous work. […] To quantify apoptosis induction, viability was determined using an MTT assay. Measurements were taken at time 0 and 48 h after addition of compounds in different concentrations. Viability was calculated as the difference between time 0 (addition of compound) and 48 h. Apoptosis induction was defined as at least 20% death of W2 cells and a 10% or higher growth of D3 cells by MTT assay. The optimal concentration of the compounds for apoptosis induction was determined based on the dose response of the two cells lines by MTT assay. […]
Apoptosis induction in the presence of compounds (2, 3) was carried out in the following manner. […] Cell viability was determined using a modification of the MTT assay, where the reduction of yellow tertazolium salt (MTT—[…]) to purple formazan indicates mitochondrial activity, and thus cell viability. […] After 30 min incubation at 37 °C, with shaking, absorbance was read at 570 nm on a Spectra MAX 250 (Molecular Devices) plate reader. Differential growth from time 0 to 48 h was calculated. […]

HDAC1 = HDAC1 (Homo sapiens, UniProt Q13547); experiment: HDAC inhibition assay, class I, fluorogenic peptide RHKK(Ac)AMC; type: biochemical; conditions: up to 50 µM
HDAC2 = HDAC2 (Homo sapiens, UniProt Q92769); experiment: as above; type: biochemical; conditions: up to 50 µM
HDAC3 = HDAC3 (Homo sapiens, UniProt O15379); experiment: as above; type: biochemical; conditions: up to 50 µM
HDAC8 = target: T1, HDAC8 (Homo sapiens, UniProt Q9BY41); experiment: HDAC inhibition assay, class I, fluorogenic peptide RHK(Ac)K(Ac)AMC; type: biochemical; conditions: up to 50 µM
T1 sequence (Q9BY41 1-377): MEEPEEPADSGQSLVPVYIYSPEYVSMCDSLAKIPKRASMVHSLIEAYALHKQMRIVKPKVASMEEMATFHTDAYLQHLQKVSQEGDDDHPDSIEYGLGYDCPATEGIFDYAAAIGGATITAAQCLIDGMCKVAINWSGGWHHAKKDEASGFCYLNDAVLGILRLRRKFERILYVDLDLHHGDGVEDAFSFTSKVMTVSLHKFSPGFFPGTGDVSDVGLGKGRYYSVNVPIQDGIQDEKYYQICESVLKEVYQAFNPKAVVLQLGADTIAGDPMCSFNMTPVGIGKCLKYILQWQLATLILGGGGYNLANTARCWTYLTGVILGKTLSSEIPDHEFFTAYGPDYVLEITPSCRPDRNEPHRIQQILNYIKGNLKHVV

HDAC6 = target: T2, HDAC6 (Homo sapiens, UniProt Q9UBN7); experiment: HDAC inhibition assay, class II B, fluorogenic peptide RHKK(Ac)AMC; type: biochemical
T2 sequence (Q9UBN7 1-1215): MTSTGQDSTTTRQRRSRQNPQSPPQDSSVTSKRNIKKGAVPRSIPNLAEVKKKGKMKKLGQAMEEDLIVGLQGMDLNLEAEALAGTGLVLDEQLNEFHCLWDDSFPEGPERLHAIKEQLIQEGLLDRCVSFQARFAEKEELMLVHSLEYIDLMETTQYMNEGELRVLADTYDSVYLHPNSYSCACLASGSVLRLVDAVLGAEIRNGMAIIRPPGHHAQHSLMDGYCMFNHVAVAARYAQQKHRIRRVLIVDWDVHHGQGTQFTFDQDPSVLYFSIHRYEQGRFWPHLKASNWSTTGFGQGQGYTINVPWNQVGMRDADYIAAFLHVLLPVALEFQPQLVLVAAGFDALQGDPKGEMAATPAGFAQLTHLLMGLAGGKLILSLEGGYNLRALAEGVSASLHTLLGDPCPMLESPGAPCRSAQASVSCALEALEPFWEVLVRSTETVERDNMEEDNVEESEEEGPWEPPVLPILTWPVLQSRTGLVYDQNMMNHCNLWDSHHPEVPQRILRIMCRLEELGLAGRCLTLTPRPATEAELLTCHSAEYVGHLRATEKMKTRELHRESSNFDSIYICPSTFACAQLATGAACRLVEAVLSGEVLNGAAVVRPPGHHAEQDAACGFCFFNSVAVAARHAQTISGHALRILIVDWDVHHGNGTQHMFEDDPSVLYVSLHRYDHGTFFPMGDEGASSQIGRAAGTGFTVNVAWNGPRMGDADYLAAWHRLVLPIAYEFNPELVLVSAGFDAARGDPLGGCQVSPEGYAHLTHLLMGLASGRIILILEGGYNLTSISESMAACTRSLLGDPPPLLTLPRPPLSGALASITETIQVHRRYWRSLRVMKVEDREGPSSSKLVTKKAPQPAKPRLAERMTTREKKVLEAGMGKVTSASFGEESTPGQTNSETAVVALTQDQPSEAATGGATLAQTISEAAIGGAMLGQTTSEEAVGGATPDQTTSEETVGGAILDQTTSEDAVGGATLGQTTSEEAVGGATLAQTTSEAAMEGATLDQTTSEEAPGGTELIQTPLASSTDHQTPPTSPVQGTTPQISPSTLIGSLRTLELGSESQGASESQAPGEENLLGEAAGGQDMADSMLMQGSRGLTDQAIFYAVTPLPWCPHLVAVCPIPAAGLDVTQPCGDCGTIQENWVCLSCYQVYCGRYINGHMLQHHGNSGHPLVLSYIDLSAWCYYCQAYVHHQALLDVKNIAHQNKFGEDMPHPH

HDAC4 = HDAC4 (Homo sapiens, UniProt P56524); experiment: HDAC inhibition assay, class II A, fluorogenic HDAC Class2a substrate; conditions: up to 100 µM
HDAC5 = HDAC5 (Homo sapiens, UniProt Q9UQL6); experiment: as above; conditions: up to 100 µM
HDAC7 = target: T3, HDAC7 (Homo sapiens, UniProt Q8WUI4); experiment: as above; conditions: up to 100 µM
T3 sequence (Q8WUI4 1-952): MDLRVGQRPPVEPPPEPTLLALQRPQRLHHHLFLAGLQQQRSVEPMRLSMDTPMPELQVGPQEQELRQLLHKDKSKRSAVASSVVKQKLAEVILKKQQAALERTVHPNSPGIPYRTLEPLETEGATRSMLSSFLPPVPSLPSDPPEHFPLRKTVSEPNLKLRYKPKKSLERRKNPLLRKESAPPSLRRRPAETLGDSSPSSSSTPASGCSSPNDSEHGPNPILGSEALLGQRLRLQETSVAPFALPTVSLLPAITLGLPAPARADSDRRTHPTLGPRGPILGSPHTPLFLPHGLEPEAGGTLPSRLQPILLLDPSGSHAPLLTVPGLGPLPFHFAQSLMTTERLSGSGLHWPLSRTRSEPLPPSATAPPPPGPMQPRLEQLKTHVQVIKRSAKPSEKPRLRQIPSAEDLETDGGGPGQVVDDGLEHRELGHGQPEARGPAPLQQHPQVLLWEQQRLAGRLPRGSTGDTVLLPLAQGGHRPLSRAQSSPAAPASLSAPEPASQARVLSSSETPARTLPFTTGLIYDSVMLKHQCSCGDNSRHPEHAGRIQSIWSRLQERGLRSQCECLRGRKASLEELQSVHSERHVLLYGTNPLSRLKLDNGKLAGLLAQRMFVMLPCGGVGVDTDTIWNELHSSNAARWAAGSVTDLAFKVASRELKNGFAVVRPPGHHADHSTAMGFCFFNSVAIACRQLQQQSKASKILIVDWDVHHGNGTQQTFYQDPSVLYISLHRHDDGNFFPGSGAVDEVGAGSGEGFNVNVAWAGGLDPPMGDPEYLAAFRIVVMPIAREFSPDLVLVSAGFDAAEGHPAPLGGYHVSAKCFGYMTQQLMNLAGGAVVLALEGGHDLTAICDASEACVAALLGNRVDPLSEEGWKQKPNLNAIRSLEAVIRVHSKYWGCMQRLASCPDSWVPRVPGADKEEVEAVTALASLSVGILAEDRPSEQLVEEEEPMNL

HDAC9 = HDAC9 (Homo sapiens, UniProt Q9UKV0); experiment: as above; conditions: up to 100 µM
HDAC9, sequence (Q9UKV0 whole entry): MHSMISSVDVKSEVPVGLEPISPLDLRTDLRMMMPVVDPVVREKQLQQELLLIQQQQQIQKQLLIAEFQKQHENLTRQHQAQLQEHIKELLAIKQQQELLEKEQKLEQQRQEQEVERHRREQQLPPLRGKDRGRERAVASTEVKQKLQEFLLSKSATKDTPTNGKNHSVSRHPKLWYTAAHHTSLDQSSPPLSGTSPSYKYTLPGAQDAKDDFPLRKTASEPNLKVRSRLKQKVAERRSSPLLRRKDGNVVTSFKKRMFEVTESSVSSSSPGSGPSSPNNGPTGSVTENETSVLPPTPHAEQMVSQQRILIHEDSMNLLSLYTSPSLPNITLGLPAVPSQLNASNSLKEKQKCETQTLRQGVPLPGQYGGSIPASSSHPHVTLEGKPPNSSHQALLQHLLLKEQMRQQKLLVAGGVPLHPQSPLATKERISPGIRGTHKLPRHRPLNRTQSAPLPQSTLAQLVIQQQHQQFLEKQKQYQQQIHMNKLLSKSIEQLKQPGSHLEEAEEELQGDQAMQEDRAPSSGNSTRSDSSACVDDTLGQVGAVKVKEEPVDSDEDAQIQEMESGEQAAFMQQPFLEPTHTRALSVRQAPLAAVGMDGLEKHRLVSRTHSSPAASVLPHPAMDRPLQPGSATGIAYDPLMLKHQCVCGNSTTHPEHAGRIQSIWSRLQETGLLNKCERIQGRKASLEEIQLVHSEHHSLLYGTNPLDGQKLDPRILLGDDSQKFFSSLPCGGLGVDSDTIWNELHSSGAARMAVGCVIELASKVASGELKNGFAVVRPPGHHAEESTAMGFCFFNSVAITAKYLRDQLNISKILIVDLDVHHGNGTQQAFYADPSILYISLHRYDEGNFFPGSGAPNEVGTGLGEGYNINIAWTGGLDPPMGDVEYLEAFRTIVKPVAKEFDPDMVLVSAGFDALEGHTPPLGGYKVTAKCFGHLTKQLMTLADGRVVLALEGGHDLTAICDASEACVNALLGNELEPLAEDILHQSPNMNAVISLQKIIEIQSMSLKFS

HDAC2, sequence (Q92769 whole entry): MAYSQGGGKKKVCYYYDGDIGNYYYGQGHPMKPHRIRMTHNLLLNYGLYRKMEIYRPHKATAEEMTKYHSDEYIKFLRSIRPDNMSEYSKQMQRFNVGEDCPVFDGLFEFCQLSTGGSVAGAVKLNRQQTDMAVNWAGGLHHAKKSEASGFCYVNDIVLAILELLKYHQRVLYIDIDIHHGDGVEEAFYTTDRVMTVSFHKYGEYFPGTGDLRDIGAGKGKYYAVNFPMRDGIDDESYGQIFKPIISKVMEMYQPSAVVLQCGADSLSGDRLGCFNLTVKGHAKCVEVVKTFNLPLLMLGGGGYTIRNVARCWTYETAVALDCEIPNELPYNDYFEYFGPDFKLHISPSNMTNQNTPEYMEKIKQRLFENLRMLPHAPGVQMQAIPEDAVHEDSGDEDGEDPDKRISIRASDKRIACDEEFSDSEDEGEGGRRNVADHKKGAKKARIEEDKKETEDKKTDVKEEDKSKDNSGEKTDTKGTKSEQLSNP
HDAC5, sequence (Q9UQL6 whole entry): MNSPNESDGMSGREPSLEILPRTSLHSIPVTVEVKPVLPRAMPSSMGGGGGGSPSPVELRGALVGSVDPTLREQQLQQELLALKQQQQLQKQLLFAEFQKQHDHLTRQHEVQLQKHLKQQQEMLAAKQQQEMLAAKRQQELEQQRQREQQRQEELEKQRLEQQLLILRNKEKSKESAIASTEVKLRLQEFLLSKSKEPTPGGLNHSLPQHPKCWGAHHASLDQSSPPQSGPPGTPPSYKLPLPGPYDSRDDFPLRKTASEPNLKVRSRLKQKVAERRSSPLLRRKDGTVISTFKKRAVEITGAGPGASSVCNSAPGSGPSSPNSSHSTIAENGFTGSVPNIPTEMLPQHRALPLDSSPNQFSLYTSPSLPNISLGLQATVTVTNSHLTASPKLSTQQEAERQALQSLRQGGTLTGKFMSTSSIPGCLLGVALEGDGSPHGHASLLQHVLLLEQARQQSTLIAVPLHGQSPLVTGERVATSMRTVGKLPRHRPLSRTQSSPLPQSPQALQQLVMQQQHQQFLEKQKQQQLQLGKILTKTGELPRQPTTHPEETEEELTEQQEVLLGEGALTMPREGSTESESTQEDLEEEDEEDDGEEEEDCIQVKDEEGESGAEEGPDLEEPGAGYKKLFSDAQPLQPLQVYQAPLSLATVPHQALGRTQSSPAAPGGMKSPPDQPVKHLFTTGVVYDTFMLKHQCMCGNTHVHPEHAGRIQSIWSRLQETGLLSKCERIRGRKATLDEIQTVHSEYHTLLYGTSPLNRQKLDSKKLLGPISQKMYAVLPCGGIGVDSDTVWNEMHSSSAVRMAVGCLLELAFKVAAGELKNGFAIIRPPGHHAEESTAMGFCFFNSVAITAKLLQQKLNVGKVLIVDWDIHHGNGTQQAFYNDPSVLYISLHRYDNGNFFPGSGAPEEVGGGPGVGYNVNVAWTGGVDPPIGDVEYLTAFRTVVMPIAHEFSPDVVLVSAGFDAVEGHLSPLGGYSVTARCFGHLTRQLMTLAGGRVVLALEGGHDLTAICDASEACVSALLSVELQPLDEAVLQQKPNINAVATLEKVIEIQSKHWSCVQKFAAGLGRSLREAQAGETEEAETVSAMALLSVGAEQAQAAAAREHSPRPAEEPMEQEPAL
HDAC1, sequence (Q13547 whole entry): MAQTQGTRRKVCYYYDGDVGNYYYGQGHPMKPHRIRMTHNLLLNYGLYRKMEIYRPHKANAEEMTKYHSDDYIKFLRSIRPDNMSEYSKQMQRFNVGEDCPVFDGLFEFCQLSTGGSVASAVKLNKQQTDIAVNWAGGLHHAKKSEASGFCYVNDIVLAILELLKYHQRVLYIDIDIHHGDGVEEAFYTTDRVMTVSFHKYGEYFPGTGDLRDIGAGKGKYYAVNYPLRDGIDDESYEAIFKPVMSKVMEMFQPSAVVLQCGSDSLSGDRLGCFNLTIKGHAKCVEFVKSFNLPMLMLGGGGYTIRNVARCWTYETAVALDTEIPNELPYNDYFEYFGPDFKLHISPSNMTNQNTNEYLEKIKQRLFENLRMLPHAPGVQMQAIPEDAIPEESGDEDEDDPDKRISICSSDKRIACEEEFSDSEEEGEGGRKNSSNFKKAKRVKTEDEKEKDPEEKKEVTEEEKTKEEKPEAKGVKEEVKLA
HDAC3, sequence (O15379 whole entry): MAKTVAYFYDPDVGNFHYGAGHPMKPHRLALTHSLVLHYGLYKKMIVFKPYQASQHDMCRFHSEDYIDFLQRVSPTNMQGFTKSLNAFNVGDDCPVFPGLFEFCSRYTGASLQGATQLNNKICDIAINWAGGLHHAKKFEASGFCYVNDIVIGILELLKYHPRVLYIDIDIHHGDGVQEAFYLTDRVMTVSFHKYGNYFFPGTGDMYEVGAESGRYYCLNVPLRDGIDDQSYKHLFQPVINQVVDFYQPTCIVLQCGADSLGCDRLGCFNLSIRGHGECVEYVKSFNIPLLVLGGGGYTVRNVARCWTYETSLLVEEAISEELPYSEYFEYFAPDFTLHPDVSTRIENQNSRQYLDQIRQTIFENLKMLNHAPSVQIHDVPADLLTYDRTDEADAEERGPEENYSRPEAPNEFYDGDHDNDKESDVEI
HDAC3, sequence (Q9Y618 395-489 partner limits assumed): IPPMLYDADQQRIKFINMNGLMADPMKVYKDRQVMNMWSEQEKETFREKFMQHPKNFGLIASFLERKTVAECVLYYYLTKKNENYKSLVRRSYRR
HDAC4, sequence (P56524 whole entry): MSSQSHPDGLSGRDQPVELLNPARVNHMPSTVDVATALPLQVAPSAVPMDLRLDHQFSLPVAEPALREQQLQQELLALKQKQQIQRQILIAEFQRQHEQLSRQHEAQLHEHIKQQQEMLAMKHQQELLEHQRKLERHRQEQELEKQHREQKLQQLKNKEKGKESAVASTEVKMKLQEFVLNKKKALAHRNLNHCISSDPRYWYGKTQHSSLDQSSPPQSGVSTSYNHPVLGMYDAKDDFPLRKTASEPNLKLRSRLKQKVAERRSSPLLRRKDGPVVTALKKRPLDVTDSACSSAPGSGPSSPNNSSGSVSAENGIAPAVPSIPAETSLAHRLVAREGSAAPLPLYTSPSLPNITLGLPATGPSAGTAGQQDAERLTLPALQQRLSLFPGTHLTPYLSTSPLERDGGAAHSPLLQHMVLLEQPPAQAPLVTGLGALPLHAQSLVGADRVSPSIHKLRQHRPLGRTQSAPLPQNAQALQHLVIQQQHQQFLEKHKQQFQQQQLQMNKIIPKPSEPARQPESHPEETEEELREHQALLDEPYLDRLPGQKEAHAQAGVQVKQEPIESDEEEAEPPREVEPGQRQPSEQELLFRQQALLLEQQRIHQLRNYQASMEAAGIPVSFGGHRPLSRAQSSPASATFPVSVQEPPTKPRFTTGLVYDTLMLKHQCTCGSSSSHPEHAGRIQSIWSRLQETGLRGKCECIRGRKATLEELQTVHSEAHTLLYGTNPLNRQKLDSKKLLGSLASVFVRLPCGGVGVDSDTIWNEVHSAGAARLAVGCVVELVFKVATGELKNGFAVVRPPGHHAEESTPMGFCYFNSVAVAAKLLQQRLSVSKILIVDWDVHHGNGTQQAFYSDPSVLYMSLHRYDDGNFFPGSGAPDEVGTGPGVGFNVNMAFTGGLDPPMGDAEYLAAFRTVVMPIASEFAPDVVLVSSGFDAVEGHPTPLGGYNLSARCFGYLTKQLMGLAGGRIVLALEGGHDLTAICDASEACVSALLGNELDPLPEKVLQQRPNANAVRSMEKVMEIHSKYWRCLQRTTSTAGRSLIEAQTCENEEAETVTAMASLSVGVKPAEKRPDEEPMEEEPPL

Row | inhibition of HDAC1 (HDAC1) | inhibition of HDAC2 (HDAC2) | inhibition of HDAC3 (HDAC3) | inhibition of HDAC8 (HDAC8) | IC50 (HDAC6; 10-dose, 3-fold serial dilution, Compound 3 in duplicate starting at 120 µM, read-out: IC50) [µM] | IC50 (HDAC6; as stated in text and legend of Figure 6, read-out: IC50) [µM] | HILLSLOPE (HDAC6; curve fit) | IC50 (HDAC6; curve fit printed in the picture of Figure 6, read-out: HDAC 6: EC50) [µM] | inhibition of HDAC4 (HDAC4) | inhibition of HDAC5 (HDAC5) | inhibition of HDAC7 (HDAC7) | inhibition of HDAC9 (HDAC9) | Compound | cytotoxicity (P-388) | cytotoxicity (HT-29) | cytotoxicity (A549) | optimal concentration for apoptosis induction (W2 cells) [µM] | cell death in W2 cells (W2 cells) | cell death in D3 cells (D3 cells) | inhibition of HDAC6 (HDAC6)
1 |  |  |  |  |  |  |  |  |  |  |  |  | C=C1CC[C@@H]2O[C@@]2(C)CC[C@H](/C(=C\CC2OC2(C)C)COC(C)=O)[C@H]1C(=O)OC (stereo partly shown) [xenitacin] | most active compound in its group | most active compound in its group | most active compound in its group |  |  |  | 
2 | did not significantly inhibit | did not significantly inhibit | did not significantly inhibit | did not significantly inhibit | 80.9 | ~80 | −1.19 | 80.9 | did not significantly inhibit | did not significantly inhibit | did not significantly inhibit | did not significantly inhibit | C=C1CC[C@@H]2O[C@@]2(C)CC[C@H](/C(=C/CC2OC2(C)C)CO)[C@H]1C(=O)OC (relative stereo) [Compound 3] |  |  |  | 1.2 | induce measurable cell death in W2 | not in D3 cells | inhibits selectively HDAC6 in high micromolar concentrations
3 |  |  |  |  |  |  |  |  |  |  |  |  | C=C1CC/C=C(\C)CC[C@@H]2C(C(CC3OC3(C)C)OC(C)=O)=CO[C@H](OC)[C@@H]12 (relative stereo) [Compound 2] |  |  |  | 11.5 | induce measurable cell death in W2 | not in D3 cells | 
